In general, IC50 refers to the point on the concentration scale where inhibition reaches its midpoint. In general, inhibition refers to the share of the control response that was lost under treatment.

SMILES strings stand for the structures.

Results on one compound are retold here after PMC6149971, “In Vivo and In Vitro Activities and ADME-Tox Profile of a Quinolizidine-Modified 4-Aminoquinoline: A Potent Anti-P. falciparum and Anti-P. vivax Blood-Stage Antimalarial” (Molecules : A Journal of Synthetic Chemistry and Natural …, 2017).

Data set [1] in a line: Pharmacokinetics in CD-1 mice after oral administration. Particulars: mouse, in vivo.
The nature of data set [2]: Metabolites in mouse plasma after oral treatment. The arrangement: key: +: Metabolic Products Detected In Vitro and In Vivo; ND: Not detectable. The note with it: after 50 mg/kg (−)-AM1 oral gavage, at 120 min. In kind it is in vivo. As for the experimental part:
A representative chromatogram in the mouse and the MS spectra are shown in Figure S1 (Supplementary Materials), while the proposed structures of metabolites in all the species, together with the retention times, are shown in Table 3. In the same table, the metabolites found in mouse plasma after 50 mg/kg oral treatment are included. The retention times and [M + H]^+ of the metabolites are the same for all three species.
The parent [M + H]^+ = 330 and the metabolites [M + H]^+ = 346 and [M + H]^+ = 344 were also detected in the mouse plasma samples collected after oral treatment of CD1 mice with 50 mg/kg of (−)-AM1 (Figure S4).
Samples from the metabolic stability and metabolism studies were analyzed under the following conditions: UPLC interfaced with a Premiere XE triple Quadrupole Waters for stability studies, and Bruker Daltonics Ion Trap HCT Ultra for metabolic studies. A gradient from 2% to 100% (Water, MeOH, 5 mM Ammonium Acetate) over 2 min (stability) or 12 min (metabolism) in a C18 BEH (dimensions 1 by 50 mm for stability and 2.1 by 100 mm for metabolism, 1.7 µm column, 45 °C temperature, flow rate 0.5 mL/min) was used. […]

Data set [3] concerns P. falciparum FCR3 (CQ-R). Kind of data set: In vitro chemosensitivity assay (pLDH), FCR3 strain. In kind it is cell-based. The note with it: Plasmodium falciparum, FCR3; 72 h incubation, pLDH method, mean of 3 experiments; read-out: P. falciparum IC50, FCR3.
For the next data set, the target named is CYP2C9 (Homo sapiens, UniProt P11712). Put plainly: in vitro.
Data set [4] has as its system P. berghei ANKA transmission stages in Anopheles stephensi. Kind of data set: Transmission-blocking test, P. berghei/A. stephensi model. In kind it is in vivo. Particulars: 50 mg/kg oral. On the procedure: (−)-AM1 was also tested in transmission-blocking and prophylactic studies using the P. berghei/A. stephensi model as described, with a few modifications.
For the transmission-blocking test, four BALB/c female mice (18–20 g) were infected i.p. with 10^7 P. berghei-infected red blood cells. Four days later, once confirmed for gametocyte carriage, two mice were treated with 50 mg/kg (−)-AM1, through the oral administration of 500 µL of a methylcellulose suspension, obtained by dissolving a 20 mg/mL ethanol stock solution in 0.5% methylcellulose to a final 9% ethanol concentration. Two mice received the vehicle only as controls. One hour after the treatment, mice were anesthetized and exposed to the bites of 100 sugar-starved female mosquitoes, at 20 °C. Ten days after the blood meal, samples of mosquito midguts from each treatment (n = 40) were dissected and P. berghei oocysts were manually counted using light microscopy at 400× magnification. Oocyst numbers were log-transformed and the geometric means were compared using the Student’s t-test.

The target in a further data set is T1, CYP1A2 (Homo sapiens, UniProt P05177).
T1 sequence (P05177 1-516): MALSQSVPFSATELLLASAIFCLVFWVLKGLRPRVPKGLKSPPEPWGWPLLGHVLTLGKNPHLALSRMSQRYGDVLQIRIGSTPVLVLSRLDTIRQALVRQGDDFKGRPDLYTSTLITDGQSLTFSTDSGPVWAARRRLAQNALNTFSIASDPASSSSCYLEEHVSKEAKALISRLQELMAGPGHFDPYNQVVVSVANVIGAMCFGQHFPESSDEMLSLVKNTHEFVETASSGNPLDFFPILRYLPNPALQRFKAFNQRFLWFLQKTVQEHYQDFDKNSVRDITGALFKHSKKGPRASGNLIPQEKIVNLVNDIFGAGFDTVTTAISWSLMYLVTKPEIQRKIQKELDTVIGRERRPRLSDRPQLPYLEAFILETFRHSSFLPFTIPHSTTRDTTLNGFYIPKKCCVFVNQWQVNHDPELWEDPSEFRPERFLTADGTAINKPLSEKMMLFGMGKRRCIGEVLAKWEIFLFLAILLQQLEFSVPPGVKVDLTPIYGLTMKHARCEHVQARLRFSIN
Kind of data set: in vitro.

Data set [5] in a line: Microsome stability and metabolism studies, mouse. In kind it is in vitro ADME. Also noted: key: +: Metabolic Products Detected In Vitro and In Vivo; ND: Not detectable. Particulars: (−)-AM1 1 μM, at 30 min. On the procedure: Samples from the metabolic stability and metabolism studies were analyzed under the following conditions: UPLC interfaced with a Premiere XE triple Quadrupole Waters for stability studies, and Bruker Daltonics Ion Trap HCT Ultra for metabolic studies. A gradient from 2% to 100% (Water, MeOH, 5 mM Ammonium Acetate) over 2 min (stability) or 12 min (metabolism) in a C18 BEH (dimensions 1 by 50 mm for stability and 2.1 by 100 mm for metabolism, 1.7 µm column, 45 °C temperature, flow rate 0.5 mL/min) was used. For stability studies, the detection was performed in MRM (ESI positive, Q1/Q3 330.16/152.00, Cone Voltage 45 V; Extractor 5 V; Capillary 3.4 kV), while for metabolism studies, analysis was performed in Auto MS/MS mode (ESI positive; Capillary 109 V; Dry Temp 350 °C; Nebulizer 30 psi; Dry gas 10 L/min; HV capillary 500 V; Mass Accu time 500 µs; Mass range MS scan 100–600 amu, MS/MS 50–450 amu).
For stability and metabolism studies, test compounds were dissolved in DMSO, diluted at the final concentration of 1 µM, and pre-incubated in duplicate for 10 min at 37 °C in potassium phosphate buffer, pH 7.4, 3 mM MgCl2, with rat, mouse, and human hepatic microsomes (Xenotech Europe, Pfungstadt, Germany) at the final concentration of 0.5 mg/mL. The reaction was then started by adding the cofactor mixture of NADP, Glc6P, and G6P-DH, in the presence of UDPGA 1 mM in human microsomes to promote glucuronide formation. Acetonitrile (with verapamil as internal standard) was added to the samples at the times time 0 and 30 min to stop the reaction. Samples were then centrifuged and the supernatants analysed and quantified by LC-MS/MS. Reference compounds of known metabolic stability, 7-ethoxycoumarin (7-EC) and propranolol, were used as controls.
The percentage of the area of test compounds remaining after 30 min incubation was calculated in respect to the area of compounds at time = 0 min. […] Samples were re-analyzed by acquiring the daughter scan of the potential metabolites found during the full scan acquisition.

CYP2C9, sequence (P11712 whole entry): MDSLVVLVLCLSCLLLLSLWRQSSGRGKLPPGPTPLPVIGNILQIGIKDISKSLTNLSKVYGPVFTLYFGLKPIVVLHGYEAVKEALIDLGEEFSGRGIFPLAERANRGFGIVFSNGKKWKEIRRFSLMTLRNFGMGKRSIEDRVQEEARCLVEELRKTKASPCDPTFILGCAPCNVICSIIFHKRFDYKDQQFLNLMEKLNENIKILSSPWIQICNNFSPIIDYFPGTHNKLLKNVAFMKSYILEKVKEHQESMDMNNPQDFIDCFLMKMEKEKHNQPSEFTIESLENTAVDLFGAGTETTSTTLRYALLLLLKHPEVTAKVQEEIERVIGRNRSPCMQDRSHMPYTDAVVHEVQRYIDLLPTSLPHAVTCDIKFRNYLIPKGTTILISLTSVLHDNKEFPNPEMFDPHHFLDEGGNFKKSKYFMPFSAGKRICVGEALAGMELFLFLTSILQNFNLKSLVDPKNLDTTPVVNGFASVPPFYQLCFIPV

Regarding `Clc1ccc2c(NC[C@@H]3CCCN4CCCC[C@H]34)ccnc2c1` [(−)-AM1, 7-chloro-N-(((1S,9aR)-octahydro-1H-quinolizin-1-yl)methyl)quinolin-4-amine], the “dose proportionality of oral pharmacokinetics” value in data set [1] is recorded as “dose proportionality was displayed”. The “Metabolic products detected, in vivo plasma levels, mouse” value in data set [2] is reported as “+”. Moreover, the IC50 in data set [3] is 23.3 nM. The inhibition at 3 µM against CYP2C9 and on CYP1A2 was below 5% in each case. Further, the “infection intensity, average number of oocysts per midgut” value in data set [4] (BALB/c mice, read after 10 days, control 39.17, p = 0.24) was 54.11 (CI95 39.77–68.45) oocysts. The transmission-blocking activity entry in data set [4] (P. berghei/A. stephensi model) is reported as “does not show transmission-blocking or prophylactic activity”. Moreover, in data set [5], the “Metabolic products detected, in vitro microsomes, mouse” value is “+”.
